The supplement of paper PMC10627819

Columns and labels:
Assay in all cases: Bliss interaction score (quartile over a dose matrix) (fitness difference); higher = more antagonism (negative = synergy)
S. aureus Newman = system: S. aureus Newman
In short: (§1)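 At entry into stationary phase, OD595 was recorded and divided by the robust mean of the no-drug wells on that plate, with any value above 1 set to 1. This gives the fitness measure used throughout. Single-drug fitness was inferred from combination data, and the Bliss score, observed minus product-expected fitness, is shown as quartiles across technical, biological and donor/recipient replicates.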

S. pneumoniae D39V = system: S. pneumoniae D39V
In short: as §1

B. subtilis 168 = system: B. subtilis 168
In short: as §1

S. aureus DSM 20231 = system: S. aureus DSM 20231
In short: as §1
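Also: first quartile when negative (synergy) and third quartile when positive (antagonism).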

| Structure (SMILES) | Bliss interaction score (S. aureus Newman) | Bliss interaction score (S. pneumoniae D39V) | Bliss interaction score (B. subtilis 168) | Bliss interaction score (S. aureus DSM 20231) |
| --- | --- | --- | --- | --- |
| N#CC(C#N)=NNc1cccc(Cl)c1 [CCCP] + CC[C@H]1OC(=O)[C@H](C)[C@@H](O[C@H]2C[C@@](C)(OC)[C@@H](O)[C@H](C)O2)[C@H](C)[C@@H](O[C@@H]2O[C@H](C)C[C@H](N(C)C)[C@H]2O)[C@](C)(OC)C[C@@H](C)C(=O)[C@H](C)[C@@H](O)[C@]1(C)O [Clarithromycin] | 0.0706 | -0.0531 | 0.0363 | -0.0461 |
| N#CC(C#N)=NNc1cccc(Cl)c1 [CCCP] + CN1C2=CC=CC=C2N=C3C1=CC=CC3=O [Pyocyanin] | -0.0376 | -0.0451 | -0.0772 | -0.0215 |
| N#CC(C#N)=NNc1cccc(Cl)c1 [CCCP] + CN(C)C(=O)C(CCN1CCC(O)(c2ccc(Cl)cc2)CC1)(c1ccccc1)c1ccccc1 [Loperamide] | 0.0942 | -0.227 | 0.0251 | -0.0407 |
| N#CC(C#N)=NNc1cccc(Cl)c1 [CCCP] + CN(C)[C@@H]1C(O)=C(C(N)=O)C(=O)[C@@]2(O)C(O)=C3C(=O)c4c(O)ccc(Cl)c4[C@@](C)(O)[C@H]3C[C@@H]12 [Clortetracycline] | 0.0865 | -0.0306 | -0.0685 | 0.0445 |
| N#CC(C#N)=NNc1cccc(Cl)c1 [CCCP] + CN(C)c1cc(NC(=O)CNC(C)(C)C)c(O)c2c1C[C@H]1C[C@H]3[C@H](N(C)C)C(O)=C(C(N)=O)C(=O)[C@@]3(O)C(O)=C1C2=O [Tigecycline] | -0.0359 | 0.102 | -0.0512 | 0.0272 |
| N#CC(C#N)=NNc1cccc(Cl)c1 [CCCP] + CN(N=O)C(=O)N[C@@H](C=O)[C@@H](O)[C@H](O)[C@H](O)CO [Streptozotocin] | -0.0707 | 0.0737 | 0.0172 | -0.0689 |
| N#CC(C#N)=NNc1cccc(Cl)c1 [CCCP] + CN[C@@H]1[C@H](O)[C@H](NC)[C@H]2O[C@@]3(O)C(=O)C[C@@H](C)O[C@H]3O[C@@H]2[C@H]1O [Spectinomycin] | -0.0505 | 0.0475 | 0.0317 | 0.0771 |
| N#CC(C#N)=NNc1cccc(Cl)c1 [CCCP] + CN[C@@H]1[C@H](O[C@H]2[C@H](O[C@H]3[C@H](O)[C@@H](O)[C@H](N=C(N)N)[C@@H](O)[C@@H]3N=C(N)N)O[C@@H](C)[C@]2(O)C=O)O[C@@H](CO)[C@H](O)[C@H]1O [Streptomycin] | 0.0563 | 0.0786 | 0.48 | 0.0501 |
| N#CC(C#N)=NNc1cccc(Cl)c1 [CCCP] + CN[C@H](CC(C)C)C(=O)N[C@H]1C(=O)N[C@@H](CC(N)=O)C(=O)N[C@H]2C(=O)N[C@H]3C(=O)N[C@H](C(=O)N[C@H](C(=O)O)c4cc(O)cc(O)c4-c4cc3ccc4O)[C@H](O)c3ccc(c(Cl)c3)Oc3cc2cc(c3O[C@@H]2O[C@H](CO)[C@@H](O)[C@H](O)[C@H]2O[C@H]2C[C@](C)(N)[C@H](O)[C@H](C)O2)Oc2ccc(cc2Cl)[C@H]1O [Vancomycin] | -0.0614 | 0.0815 | 0.0489 | 0.0309 |
| N#CC(C#N)=NNc1cccc(Cl)c1 [CCCP] + CN[C@H](CC(C)C)C(=O)N[C@H]1C(=O)N[C@@H](CC(N)=O)C(=O)N[C@H]2C(=O)N[C@H]3C(=O)N[C@H](C(=O)N[C@H](C(=O)O)c4cc(O)cc(O)c4-c4cc3ccc4O)[C@H](O[C@H]3C[C@](C)(N)[C@@H](O)[C@H](C)O3)c3ccc(c(Cl)c3)Oc3cc2cc(c3O[C@@H]2O[C@H](CO)[C@@H](O)[C@H](O)[C@H]2O[C@H]2C[C@](C)(NCc3ccc(-c4ccc(Cl)cc4)cc3)[C@@H](O)[C@H](C)O2)Oc2ccc(cc2Cl)[C@H]1O [Oritavancin] | 0.0576 | 0.0676 | 0.0275 | -0.0305 |
| N#CC(C#N)=NNc1cccc(Cl)c1 [CCCP] + CO/N=C(\C(=O)N[C@@H]1C(=O)N2C(C(=O)O)=C(COC(C)=O)CS[C@H]12)c1csc(N)n1 [Cefotaxime] | 0.0493 | -0.112 | 0.139 | 0.0268 |
| N#CC(C#N)=NNc1cccc(Cl)c1 [CCCP] + CO/N=C(\C(=O)N[C@@H]1C(=O)N2C(C(=O)O)=C(COC(N)=O)CS[C@H]12)c1ccco1 [Cefuroxime] | -0.112 | 0.0309 | 0.0873 | -0.256 |
| N#CC(C#N)=NNc1cccc(Cl)c1 [CCCP] + CO/N=C(\C(=O)N[C@@H]1C(=O)N2C(C(=O)[O-])=C(C[N+]3(C)CCCC3)CS[C@H]12)c1csc(N)n1 [Cefepime] | 0.0498 | -0.0827 | 0.0769 | 0.1 |
| N#CC(C#N)=NNc1cccc(Cl)c1 [CCCP] + CO[C@@H]1[C@@H](OC(N)=O)[C@@H](O)[C@H](Oc2ccc3c(O)c(NC(=O)c4ccc(O)c(CC=C(C)C)c4)c(=O)oc3c2C)OC1(C)C [Novobiocin] | 0.0377 | 0.164 | -0.144 | 0.0738 |
| N#CC(C#N)=NNc1cccc(Cl)c1 [CCCP] + CO[C@@]12[C@H](COC(N)=O)C3=C(C(=O)C(C)=C(N)C3=O)N1C[C@@H]1N[C@@H]12 [MitomycinC] | -0.0345 | -0.0605 | -0.051 | -0.0844 |
| N#CC(C#N)=NNc1cccc(Cl)c1 [CCCP] + CO[C@H]1/C=C/O[C@@]2(C)Oc3c(C)c(O)c4c(O)c(c(/C=N/N5CCN(C)CC5)c(O)c4c3C2=O)NC(=O)/C(C)=C\C=C\[C@H](C)[C@H](O)[C@@H](C)[C@@H](O)[C@@H](C)[C@H](OC(C)=O)[C@@H]1C [Rifampicin] | 0.0395 | 0.0879 | -0.0783 | 0.0329 |
| N#CC(C#N)=NNc1cccc(Cl)c1 [CCCP] + COc1c(N2C[C@@H]3CCCN[C@@H]3C2)c(F)cc2c(=O)c(C(=O)O)cn(C3CC3)c12 [Moxifloxacin] | -0.0686 | 0.0433 | 0.0233 | -0.0373 |
| N#CC(C#N)=NNc1cccc(Cl)c1 [CCCP] + COc1cc(Cc2cnc(N)nc2N)cc(OC)c1OC [Trimethoprim] | -0.0599 | 0.183 | 0.0605 | 0.0495 |
| N#CC(C#N)=NNc1cccc(Cl)c1 [CCCP] + COc1ccc(C[C@H](N)C(=O)N[C@H]2[C@@H](O)[C@H](n3cnc4c(N(C)C)ncnc43)O[C@@H]2CO)cc1 [Puromycin] | 0.0515 | 0.0604 | 0.0243 | 0.0553 |
| N#CC(C#N)=NNc1cccc(Cl)c1 [CCCP] + COc1cccc2c1C(=O)c1c(O)c3c(c(O)c1C2=O)C[C@@](O)(C(=O)CO)C[C@@H]3O[C@H]1C[C@H](N)[C@H](O)[C@H](C)O1 [Doxorubicin] | -0.0546 | -0.0519 | -0.0695 | 0.0424 |
| N#CC(C#N)=NNc1cccc(Cl)c1 [CCCP] + C[C@@H]1O[C@@H]1P(=O)(O)O [Fosfomycin] | 0.0906 | 0.0604 | 0.0638 | 0.0417 |

| Structure (SMILES) | Bliss interaction score (S. aureus Newman) | Bliss interaction score (S. pneumoniae D39V) | Bliss interaction score (B. subtilis 168) | Bliss interaction score (S. aureus DSM 20231) |
| --- | --- | --- | --- | --- |
| N#CC(C#N)=NNc1cccc(Cl)c1 [CCCP] + C[C@@H](O)[C@H]1C(=O)N2C(C(=O)O)=C(SCCNC=N)C[C@H]12 [Imipenem] | 0.0181 | 0.0923 | -0.0769 | 0.0449 |
| N#CC(C#N)=NNc1cccc(Cl)c1 [CCCP] + C[C@H]1COc2c(N3CCN(C)CC3)c(F)cc3c(=O)c(C(=O)O)cn1c23 [Levofloxacin] | 0.0426 | 0.0909 | 0.0457 | -0.0231 |
| N#CC(C#N)=NNc1cccc(Cl)c1 [CCCP] + C[C@H]1c2cccc(O)c2C(=O)C2=C(O)[C@]3(O)C(=O)C(C(N)=O)=C(O)[C@@H](N(C)C)[C@@H]3[C@@H](O)[C@@H]21 [Doxycycline] | 0.0768 | 0.047 | -0.0353 | -0.0215 |
| N#CC(C#N)=NNc1cccc(Cl)c1 [CCCP] + C[n+]1ccc(-c2cc[n+](C)cc2)cc1 [Paraquat] | -0.0253 | 0.0866 | 0.0508 | -0.0508 |
| N#CC(C#N)=NNc1cccc(Cl)c1 [CCCP] + Cc1cc(NS(=O)(=O)c2ccc(N)cc2)no1 [Sulfamethoxazol] | -0.0463 | 0.0794 | -0.0348 | -0.0343 |
| N#CC(C#N)=NNc1cccc(Cl)c1 [CCCP] + Cc1ncc([N+](=O)[O-])n1CCO [Metronidazole] | -0.0331 | 0.12 | 0.0615 | 0.0642 |
| N#CC(C#N)=NNc1cccc(Cl)c1 [CCCP] + Cc1onc(-c2ccccc2)c1C(=O)N[C@@H]1C(=O)N2[C@@H]1SC(C)(C)[C@@H]2C(=O)O [Oxacillin] | -0.0755 | 0.12 | 0.0476 | 0.0876 |
| N#CC(C#N)=NNc1cccc(Cl)c1 [CCCP] + Clc1ccc(COC(Cn2ccnc2)c2ccc(Cl)cc2Cl)c(Cl)c1 [Miconazole] | -0.0554 | -0.0431 | 0.0582 | -0.0382 |
| N#CC(C#N)=NNc1cccc(Cl)c1 [CCCP] + Cn1nnc(-c2ccc(-c3ccc(N4C[C@H](CO)OC4=O)cc3F)cn2)n1 [Tedizolid] | 0.104 | 0.044 | -0.0578 | -0.031 |
| N#CC(C#N)=NNc1cccc(Cl)c1 [CCCP] + N[C@@H]1CONC1=O [CycloserineD] | -0.0487 | 0.102 | 0.0617 | -0.0883 |
| N#CC(C#N)=NNc1cccc(Cl)c1 [CCCP] + O=C1CN(/N=C/c2ccc([N+](=O)[O-])o2)C(=O)N1 [Nitrofurantoin] | -0.0479 | -0.109 | -0.0566 | -0.0278 |
| N#CC(C#N)=NNc1cccc(Cl)c1 [CCCP] + O=C(N[C@H](CO)[C@H](O)c1ccc([N+](=O)[O-])cc1)C(Cl)Cl [Chloramphenicol] | 0.076 | -0.0866 | -0.0662 | -0.0344 |
| N#CC(C#N)=NNc1cccc(Cl)c1 [CCCP] + O=C(O)[C@H]1/C(=C/CO)O[C@@H]2CC(=O)N21 [Clavulanic] | 0.0274 | 0.0476 | 0.0453 | -0.315 |
| N#CC(C#N)=NNc1cccc(Cl)c1 [CCCP] + O=C(O)c1cn(C2CC2)c2cc(N3CCNCC3)c(F)cc2c1=O [Ciprofloxacin] | -0.0497 | 0.0549 | -0.0456 | -0.0358 |
| N#CC(C#N)=NNc1cccc(Cl)c1 [CCCP] + O=C(O[C@@H]1Cc2c(O)cc(O)cc2O[C@@H]1c1cc(O)c(O)c(O)c1)c1cc(O)c(O)c(O)c1 [EGCG] | -0.0367 | 0.105 | -0.0905 | -0.0526 |
| N#CC(C#N)=NNc1cccc(Cl)c1 [CCCP] + Oc1cc(Cl)ccc1Oc1ccc(Cl)cc1Cl [Triclosan] | -0.021 | 0.0866 | 0.0443 | 0.0338 |
| CO/N=C(\C(=O)N[C@@H]1C(=O)N2C(C(=O)O)=C(COC(C)=O)CS[C@H]12)c1csc(N)n1 [Cefotaxime] + CC1(C)S[C@@H]2[C@H](NC(=O)Cc3ccccc3)C(=O)N2[C@H]1C(=O)O [PenicillinG] | -0.0351 | -0.0791 | -0.151 | -0.0835 |
| CO/N=C(\C(=O)N[C@@H]1C(=O)N2C(C(=O)O)=C(COC(C)=O)CS[C@H]12)c1csc(N)n1 [Cefotaxime] + CC(=O)O[C@H]1C[C@@]2(C)[C@@H](C[C@@H](O)[C@H]3[C@@]4(C)CC[C@@H](O)[C@@H](C)[C@@H]4CC[C@@]32C)/C1=C(\CCC=C(C)C)C(=O)O [Fusidic acid] | 0.0487 | 0.11 | 0.0613 | 0.0189 |
| CO/N=C(\C(=O)N[C@@H]1C(=O)N2C(C(=O)O)=C(COC(C)=O)CS[C@H]12)c1csc(N)n1 [Cefotaxime] + CCC[C@@H]1C[C@@H](C(=O)N[C@@H]([C@H]2O[C@H](SC)[C@H](O)[C@@H](O)[C@H]2O)[C@H](C)Cl)N(C)C1 [Clindamycin] | -0.0656 | 0.113 | 0.0327 | 0.0463 |
| CO/N=C(\C(=O)N[C@@H]1C(=O)N2C(C(=O)O)=C(COC(C)=O)CS[C@H]12)c1csc(N)n1 [Cefotaxime] + CC[C@H]1OC(=O)[C@H](C)C(=O)[C@H](C)[C@@H](O[C@@H]2O[C@H](C)C[C@H](N(C)C)[C@H]2O)[C@](C)(OC)C[C@@H](C)C(=O)[C@H](C)[C@H]2N(CCCCn3cnc(-c4cccnc4)c3)C(=O)O[C@]12C [Telithromycin] | -0.033 | 0.0507 | 0.0749 | 0.0754 |
